In patent US6369111B1, “Substituted oximes” (priority 1998, dated 2002):

Test: logP determination by HPLC (EEC Directive 79/831 Annex V. A8)
Assay type: physicochemical
Protocol: The logP values were determined in accordance with EEC Directive 79/831 Annex V. A8 by HPLC (gradient method, acetonitrile/0.1% aqueous phosphoric acid (s) or gradient method, acetonitrile/0.1% water (n))

Row | chromatographic logP | SMILES
1 | 3.5 | CO/N=C(SC)/C(C)=N/OCc1ccccc1/C(=C\C(=O)OC)OC [Example 1, methyl 3-methoxy-3-[2-(2-methoxyamino-1-methyl-2-methylthio-ethylideneaminooxymethyl)-phenyl]-acrylate]
2 | 2.79 | CO/N=C(/C(C)=N/OCc1ccccc1/C(=C\C(=O)OC)OC)S(C)(=O)=O [Example 2, methyl 3-[2-(2-methanesulfonyl-2-methoxyimino-1-methyl-ethylideneaminooxymethyl)-phenyl]-3-methoxy-acrylate]
3 | 3.05 | CO/N=C(OC)/C(C)=N/OCc1ccccc1/C(=C\C(=O)OC)OC [Example 3, methyl 3-methoxy-3-[2-(2-methoxy-2-methoxyimino-1-methyl-ethylideneaminooxymethyl)-phenyl]-acrylate]
